For experiment [1], the target named is T1, Adrenergic β2 (H292 cells) (Homo sapiens, UniProt P07550).
T1 construct: endogenous in cells; host or cells: H292 cells
The experiment is described as follows: Assay for Adrenergic β2 Mediated cAMP Production (concentration response, AlphaScreen cAMP detection). It is filed as cell-based. The settings on record: for EC50: cAMP production, 60 minutes at room temperature, 300 μM rolipram, read-out: β2 pEC50 (converted); for β2 Intrinsic activity: fraction relative to the maximum activity determined for formoterol. The method in brief:
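H292 cells plated overnight, pre-treated with rolipram (300 μM final) 10 min, then compound 60 min at room temperature in HBSS/10 mM HEPES pH7.4/5 mM glucose, 1% DMSO. Lysate cAMP read by AlphaScreen against a cAMP standard curve; 4-parameter fit gives pEC50 and intrinsic activity as fraction of formoterol maximum.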
In general terms: Bead proximity is the source of the signal in Alpha formats.

In experiment [2] the target is T2, human muscarinic acetylcholine M3 receptor (M3-ACh) (Homo sapiens, UniProt P20309).
T2 construct: expressed in transfected cells; host or cells: CHO-K1 (Chinese Hamster Ovary) cell membranes
The experiment is described as follows: Muscarinic 3 Receptor Binding Assay ([3H]NMS competition, SPA). Conditions: [3H]NMS 0.1 nM, CHO-K1 cell membranes, 16 hours at room temperature; read-out: M3 pIC50 (converted). Summed up: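 Competition SPA binding of 0.1 nM [3H]NMS (quarter Kd) to membranes from CHO-K1 cells expressing human M3, in 20 mM HEPES pH 7.4, 5 mM MgCl2, 1% DMSO. Incubated 16 h at room temperature; non-specific binding with 1 µM atropine. pIC50 from 50% reduction of specific binding.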

SMILES strings stand for the structures. Counter-ions that a name gives are not always drawn.

T1 sequence (P07550 whole entry): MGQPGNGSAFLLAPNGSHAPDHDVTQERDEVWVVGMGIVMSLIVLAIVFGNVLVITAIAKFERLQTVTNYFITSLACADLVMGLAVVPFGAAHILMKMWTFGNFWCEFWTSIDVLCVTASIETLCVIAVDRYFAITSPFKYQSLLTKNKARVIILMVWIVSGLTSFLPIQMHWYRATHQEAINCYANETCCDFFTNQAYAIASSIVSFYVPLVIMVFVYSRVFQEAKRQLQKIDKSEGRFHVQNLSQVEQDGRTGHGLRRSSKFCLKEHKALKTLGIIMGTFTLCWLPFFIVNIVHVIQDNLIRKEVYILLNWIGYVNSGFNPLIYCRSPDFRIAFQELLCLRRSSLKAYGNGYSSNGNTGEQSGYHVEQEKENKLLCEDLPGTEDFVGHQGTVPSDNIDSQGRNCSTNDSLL
T2 sequence (P20309 whole entry): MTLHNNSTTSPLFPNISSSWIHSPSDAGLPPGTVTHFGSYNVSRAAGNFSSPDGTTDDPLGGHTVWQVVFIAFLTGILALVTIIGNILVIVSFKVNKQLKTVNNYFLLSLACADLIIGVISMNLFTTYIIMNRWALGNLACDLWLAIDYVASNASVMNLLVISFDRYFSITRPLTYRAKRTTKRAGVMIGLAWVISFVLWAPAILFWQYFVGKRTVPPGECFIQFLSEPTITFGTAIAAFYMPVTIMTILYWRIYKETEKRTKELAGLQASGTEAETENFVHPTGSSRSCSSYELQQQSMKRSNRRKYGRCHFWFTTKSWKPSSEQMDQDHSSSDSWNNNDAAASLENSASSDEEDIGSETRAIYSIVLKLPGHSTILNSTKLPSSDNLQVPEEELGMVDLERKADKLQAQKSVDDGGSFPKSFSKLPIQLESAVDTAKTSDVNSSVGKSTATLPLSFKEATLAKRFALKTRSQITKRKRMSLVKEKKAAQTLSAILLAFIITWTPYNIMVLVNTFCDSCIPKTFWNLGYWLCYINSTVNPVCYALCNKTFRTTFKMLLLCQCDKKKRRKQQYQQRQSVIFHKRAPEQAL

Turning to `CC(C)c1nc(C(=O)N2CCOC3(CCN(Cc4cccc(CCNC[C@H](O)c5ccc(O)c6[nH]c(=O)sc56)c4Cl)CC3)C2)cs1` [Example 80, (R)-7-(2-(2-Chloro-3-((4-(2-isopropylthiazole-4-carbonyl)-1-oxa-4,9-diazaspiro[5.5]undecan-9-yl)methyl)phenethylamino)-1-hydroxyethyl)-4-hydroxybenzo[d]thiazol-2(3H)-one ditrifluoroacetate], in experiment [1], the EC50 was 6.31 nM and the “β2 Intrinsic activity” value worked out at 0.8. Further, in experiment [2], the IC50 was 5.01 nM.
For the compound `Cc1nc(C(=O)N2CCOC3(CCN(CCOc4cccc(CNC[C@H](O)c5ccc(O)c6[nH]c(=O)ccc56)c4)CC3)C2)cs1` [Example 94, (R)-8-Hydroxy-5-(1-hydroxy-2-(3-(2-(4-(2-methylthiazole-4-carbonyl)-1-oxa-4,9-diazaspiro[5.5]undecan-9-yl)ethoxy)benzylamino)ethyl)quinolin-2(1H)-one ditrifluoroacetate], in experiment [1], the EC50 was 1260 nM and the “β2 Intrinsic activity” value is listed as 0.7. Moreover, the IC50 in experiment [2] was 12.6 nM.
For `CC(C)c1csc(C(=O)N2CCOC3(CCN(Cc4cccc(CCNC[C@H](O)c5ccc(O)c6[nH]c(=O)sc56)c4)CC3)C2)n1` [Example 66, (R)-4-Hydroxy-7-(1-hydroxy-2-(3-((4-(4-isopropylthiazole-2-carbonyl)-1-oxa-4,9-diazaspiro[5.5]undecan-9-yl)methyl)phenethylamino)ethyl)benzo[d]thiazol-2(3H)-one ditrifluoroacetate] the same measures were 15.8 nM, 0.9 and 0.794 nM.
As to `Cc1nc(C(=O)N2CCOC3(CCN(Cc4cccc(CCNC[C@H](O)c5ccc(O)c6[nH]c(=O)sc56)c4)CC3)CC2)cs1` [Example 89, (R)-4-Hydroxy-7-(1-hydroxy-2-(3-((10-(2-methylthiazole-4-carbonyl)-7-oxa-3,10-diazaspiro[5.6]dodecan-3-yl)methyl)phenethylamino)ethyl)benzo[d]thiazol-2(3H)-one ditrifluoroacetate], in experiment [1], the EC50 is 1.58 nM and the “β2 Intrinsic activity” value is listed as 1. The IC50 in experiment [2] was 31.6 nM.
As for `CC(C)c1nc(C(=O)N2CCOC3(CCN(Cc4ccc(C(F)(F)F)c(CCNC[C@H](O)c5ccc(O)c6[nH]c(=O)ccc56)c4)CC3)C2)cs1` [Example 273, (R)-8-Hydroxy-5-(1-hydroxy-2-(5-((4-(2-isopropylthiazole-4-carbonyl)-1-oxa-4,9-diazaspiro[5.5]undecan-9-yl)methyl)-2-(trifluoromethyl)phenethylamino)ethyl)quinolin-2(1H)-one ditrifluoroacetate], in experiment [1], the EC50 was 398 nM and the “β2 Intrinsic activity” value is on record as 0.5. In addition, the IC50 in experiment [2] is 79.4 nM.
Regarding `O=C(c1nc2ccccc2s1)N1CCOC2(CCN(CCOc3ccc(CNC[C@H](O)c4ccc(O)c5[nH]c(=O)sc45)cc3)CC2)C1` [Example 106, (R)-7-(2-(4-(2-(4-(Benzo[d]thiazole-2-carbonyl)-1-oxa-4,9-diazaspiro[5.5]undecan-9-yl)ethoxy)benzylamino)-1-hydroxyethyl)-4-hydroxybenzo[d]thiazol-2(3H)-one formate], in experiment [1], the EC50 is 100 nM and the “β2 Intrinsic activity” value came to 0.8. For the same compound, the IC50 in experiment [2] is 200 nM.
Take `Cc1ccc(C(=O)N2CCOC3(CCN(Cc4cc(CCNC[C@H](O)c5ccc(O)c6[nH]c(=O)sc56)ccc4F)CC3)C2)s1` [Example 29, (R)-7-(2-(4-Fluoro-3-((4-(5-methylthiophene-2-carbonyl)-1-oxa-4,9-diazaspiro[5.5]undecan-9-yl)methyl)phenethylamino)-1-hydroxyethyl)-4-hydroxybenzo[d]thiazol-2(3H)-one ditrifluoroacetate]: in experiment [1], the EC50 is 1.58 nM and the “β2 Intrinsic activity” value was 1. Besides, the IC50 in experiment [2] is 3.98 nM.
For `Cc1sc(C(C)C)nc1C(=O)N1CCOC2(CCN(Cc3cccc(CCNC[C@H](O)c4ccc(O)c5[nH]c(=O)sc45)c3F)CC2)C1` [Example 69, (R)-7-(2-(2-Fluoro-3-((4-(2-isopropyl-5-methylthiazole-4-carbonyl)-1-oxa-4,9-diazaspiro[5.5]undecan-9-yl)methyl)phenethylamino)-1-hydroxyethyl)-4-hydroxybenzo[d]thiazol-2(3H)-one ditrifluoroacetate] the same measures were 15.8 nM, 0.9 and 20 nM.
As for `Cc1nc(C(=O)N2CCOC3(CCN(Cc4ccc(CCNC[C@H](O)c5ccc(O)c6[nH]c(=O)ccc56)cc4)CC3)C2)cs1` [Example 17, (R)-8-Hydroxy-5-(1-hydroxy-2-(4-((4-(2-methylthiazole-4-carbonyl)-1-oxa-4,9-diazaspiro[5.5]undecan-9-yl)methyl)phenethylamino)ethyl)quinolin-2(1H)-one ditrifluoroacetate], in experiment [1], the EC50 is 50.1 nM and the “β2 Intrinsic activity” value turned out to be 0.5. For the same compound, the IC50 in experiment [2] was 50.1 nM.
As to `Cc1nc(C(=O)N2CCOC3(CCN(CCOc4cccc(CCNC[C@H](O)c5ccc(O)c6[nH]c(=O)sc56)c4)CC3)C2)cs1` [Example 24, (R)-4-Hydroxy-7-(1-hydroxy-2-(3-(2-(4-(2-methylthiazole-4-carbonyl)-1-oxa-4,9-diazaspiro[5.5]undecan-9-yl)ethoxy)phenethylamino)ethyl)benzo[d]thiazol-2(3H)-one ditrifluoroacetate], in experiment [1], the EC50 is 5.01 nM and the “β2 Intrinsic activity” value is on record as 1. Besides, in experiment [2], the IC50 is 25.1 nM.
Consider `Cc1cc(C(=O)N2CCOC3(CCN(CCCCCCCCCNC[C@H](O)c4ccc(O)c5[nH]c(=O)sc45)CC3)C2)cs1` [Example 105, (R)-4-Hydroxy-7-(1-hydroxy-2-(9-(4-(5-methylthiophene-3-carbonyl)-1-oxa-4,9-diazaspiro[5.5]undecan-9-yl)nonylamino)ethyl)benzo[d]thiazol-2(3H)-one formate], for which, in experiment [1], the EC50 was 15.8 nM and the “β2 Intrinsic activity” value was found to be 0.8. Also, the IC50 in experiment [2] is 0.126 nM.
The corresponding values for `CC(C)c1ncc(C(=O)N2CCOC3(CCN(CCOc4ccc(CNC[C@H](O)c5ccc(O)c6[nH]c(=O)sc56)cc4)CC3)C2)s1` [Example 114, (R)-4-Hydroxy-7-(1-hydroxy-2-(4-(2-(4-(2-isopropylthiazole-5-carbonyl)-1-oxa-4,9-diazaspiro[5.5]undecan-9-yl)ethoxy)benzylamino)ethyl)benzo[d]thiazol-2(3H)-one ditrifluoracetate] are 63.1 nM, 0.9 and 316 nM.
Consider `CC(C)c1nc(C(=O)N2CCOC3(CCN(CCCSCCCCNC[C@H](O)c4ccc(O)c5[nH]c(=O)sc45)CC3)C2)cs1` [Example 281, (R)-4-Hydroxy-7-(1-hydroxy-2-(4-(3-(4-(2-isopropylthiazole-4-carbonyl)-1-oxa-4,9-diazaspiro[5.5]undecan-9-yl)propylthio)butylamino)ethyl)benzo[d]thiazol-2(3H)-one formate], for which, in experiment [1], the EC50 is 31.6 nM and the “β2 Intrinsic activity” value was 0.8. For the same compound, the IC50 in experiment [2] was 1.58 nM.
`CCC(CC)c1nc(C(=O)N2CCOC3(CCN(Cc4cccc(CCNC[C@H](O)c5ccc(O)c6[nH]c(=O)sc56)c4F)CC3)C2)cs1` [Example 71, (R)-7-(2-(2-Fluoro-3-((4-(2-(pentan-3-yl)thiazole-4-carbonyl)-1-oxa-4,9-diazaspiro[5.5]undecan-9-yl)methyl)phenethylamino)-1-hydroxyethyl)-4-hydroxybenzo[d]thiazol-2(3H)-one ditrifluoroacetate]: in experiment [1], the EC50 was 20 nM and the “β2 Intrinsic activity” value is recorded as 0.8. Also, the IC50 in experiment [2] is 5.01 nM.
Consider `CCCc1cc(C(=O)N2CCOC3(CCN(Cc4cccc(CCNC[C@H](O)c5ccc(O)c6[nH]c(=O)sc56)c4)CC3)C2)cs1` [Example 267, (R)-4-Hydroxy-7-(1-hydroxy-2-(3-((4-(5-propylthiophene-3-carbonyl)-1-oxa-4,9-diazaspiro[5.5]undecan-9-yl)methyl)phenethylamino)ethyl)benzo[d]thiazol-2(3H)-one ditrifluoroacetate], for which, in experiment [1], the EC50 was 10 nM and the “β2 Intrinsic activity” value is given as 0.9. Further, in experiment [2], the IC50 was 1.58 nM.
On to `CC(C)c1nc(C(=O)N2CCOC3(CCN(CCCCCC(C)(C)CCCNC[C@H](O)c4ccc(O)c5[nH]c(=O)sc45)CC3)C2)cs1` [Example 285, (R)-4-Hydroxy-7-(1-hydroxy-2-(9-(4-(2-isopropylthiazole-4-carbonyl)-1-oxa-4,9-diazaspiro[5.5]undecan-9-yl)-4,4-dimethylnonylamino)ethyl)benzo[d]thiazol-2(3H)-one formate], for which, in experiment [1], the EC50 is 15.8 nM and the “β2 Intrinsic activity” value is listed as 1. Besides, in experiment [2], the IC50 was 3.98 nM.
For `CC(C)c1nc(C(=O)N2CCOC3(CCN(Cc4cccc(CCNC[C@H](O)c5ccc(O)c6[nH]c(=O)sc56)c4)CC3)C2)cs1` [Example 22, (R)-4-Hydroxy-7-O-hydroxy-2-(3-((4-(2-isopropylthiazole-4-carbonyl)-1-oxa-4,9-diazaspiro[5.5]undecan-9-yl)methyl)phenethylamino)ethyl)benzo[d]thiazol-2(3H)-one ditrifluoroacetate] the same measures were 10 nM, 0.9 and 0.126 nM.

Values taken from US8148373B2, “Compounds” (AstraZeneca AB, priority 2008, dated 2012).
